# Reference: patent US4556660A, “N-(Bicyclic heterocyclyl)-4-piperidinamines” (Janssen Pharmaceutica N.V., priority 1983, dated 1985)
# Tested on: compound 48/80-induced lethality
# Experiment: Protection of rats from compound 48/80-induced lethality
# Assay type: in vivo, Male rats of an inbred Wistar strain
# Details: Rattus norvegicus, 4 h, read-out: compound 48/80 lethality test rats-ED50
# Method: Protection of rats from compound 48/80-induced lethality
# The protection from compound 48/80-induced lethal circulatory collapse appears to be a simple way of evaluating quantitatively the antihistaminic activity of test compounds. Male rats of an inbred Wistar strain, weighing 240-260 g were used in the experiment. After overnight starvation the rats were transferred to conditioned laboratories (temp.=21±1° C., relative humidity-65±5%).
# The rats were treated subcutaneously or orally with a test compound or with the solvent (NaCl solution, 0.9%). […] Survival after 4 hours is therefore considered to be a safe criterion of a protective effect of drug administration.
# The ED50 -values of the compounds of formula (I) and the intermediates of formula (XVIII) are listed in the first column of table 1 and table 2. Said ED50 -values are the values in mg/kg body weight at which the tested compounds protect 50% of the tested animals against compound 48/80-induced lethality.
structure (smiles),measurement,value
OCCN1CCC(Nc2nc3cnccc3n2Cc2ccc(F)cc2)CC1 [CH2 CH2 OH 4-FC6 H4 CH2 -- 3 base],ED50,0.31 mg/kg
Fc1ccc(Cn2c(NC3CCN(CCCNc4ncccn4)CC3)nc3ccccc32)cc1 [Compound 4],ED50,0.16 mg/kg
Fc1ccc(Cn2c(NC3CCN(CCNc4cc(Cl)ncn4)CC3)nc3ccccc32)cc1 [Compound 5],ED50,0.31 mg/kg
Fc1ccc(Cn2c(NC3CCN(C4CCN(c5ncccn5)CC4)CC3)nc3ccccc32)cc1 [Compound 6],ED50,1.25 mg/kg
O=[N+]([O-])c1cccnc1N1CCC(N2CCC(Nc3nc4ccccc4n3Cc3ccc(F)cc3)CC2)CC1 [Compound 11],ED50,0.63 mg/kg
c1cnc(NCCN2CCC(Nc3nc4ccccc4n3Cc3cccnc3)CC2)nc1 [Compound 17],ED50,1.25 mg/kg
"Fc1ccc(Cn2c(NC3CCN(CCNc4ncccn4)CC3)nc3cnccc32)cc1 [Compound 26, 1[(4-fluorophenyl)methyl]-N-[1-[2-(2-pyrimidinylamino]ethyl]-4-piperidinyl]1H-imidazo[4,5-c]pyridin-2-amine]",ED50,0.08 mg/kg
"Fc1ccc(Cn2c(NC3CCN(CCNc4ncccn4)CC3)nc3ccncc32)cc1.O=C(O)/C=C/C(=O)O.O=C(O)/C=C/C(=O)O [Compound 29, 3-[(4-fluorophenyl)methyl]-N-[1-[2-[(2-pyrimidinyl)amino]ethyl]-4-piperidinyl]-3H-imidazo[4,5-c]pyridin-2-amine (E)-2-butenedioate (1:2)]",ED50,0.16 mg/kg
Cc1cc(NCCN2CCC(Nc3nc4ccccc4n3Cc3ccc(F)cc3)CC2)nc(N)n1 [Compound 35],ED50,0.31 mg/kg
Cc1nc2ccccc2nc1NCCN1CCC(Nc2nc3ccccc3n2Cc2ccc(F)cc2)CC1 [Compound 41],ED50,1.25 mg/kg
Fc1ccc(Cn2c(NC3CCN(CCNc4ccc5ccccc5n4)CC3)nc3ccccc32)cc1 [Compound 44],ED50,0.31 mg/kg
"Cc1cc(Cl)nc(NCCN2CCC(Nc3nc4ccccc4n3Cc3ccc(F)cc3)CC2)n1 [Compound 62, N-[1-[2-[(4-chloro-6-methyl-2-pyrimidinyl)amino]ethyl]-4-piperidinyl]-1-[(4-fluorophenyl)methyl]-1H-benzimidazol-2-amine]",ED50,0.63 mg/kg
"Brc1ccc(OCCN2CCC(Nc3nc4ccccc4n3Cc3ccco3)CC2)nc1 [Compound 78, N-[1-[2-[(5-bromo-2-pyridinyl)oxy]ethyl]-4-piperidinyl]-1-(2-furanylmethyl)-1H-benzimidazol-2-amine]",ED50,0.31 mg/kg
"Cc1nc2ccccc2nc1OCCN1CCC(Nc2nc3ccccc3n2Cc2ccc(F)cc2)CC1 [Compound 80, 1-[(4-fluorophenyl)methyl]-N-[1-[2-[(3-methyl-2-quinoxalinyl)oxy]ethyl]-4-piperidinyl]-1H-benzimidazol-2-amine]",ED50,2.5 mg/kg
"Fc1ccc(Cn2c(NC3CCN(CCOc4ccc(Br)cn4)CC3)nc3ccccc32)cc1 [Compound 82, N-[1-[2-[(5-bromo-2-pyridinyl)oxy]ethyl]-4-piperidinyl]-1-[(4-fluorophenyl)methyl]-1H-benzimidazol-2-amine]",ED50,0.16 mg/kg
"O=c1cc(Cc2ccccc2)[nH]c(NCCN2CCC(Nc3nc4ccccc4n3Cc3ccc(F)cc3)CC2)n1 [Compound 89, 2-[[2-[4-[[1-[(4-fluorophenyl)methyl]-1H-benzimidazol-2-yl]amino]-1-piperidinyl]ethyl]amino]-6-(phenylmethyl)-4-(1H)-pyrimidinone]",ED50,0.63 mg/kg
"COc1cc(NCCN2CCC(Nc3nc4ccccc4n3Cc3ccc(F)cc3)CC2)ncn1 [Compound 98, 1-[(4-fluorophenyl)methyl]-N-[1-[2-[(6-methoxy-4-pyrimidinyl)amino]ethyl]-4-piperidinyl]-1H-benzimidazol-2-amine]",ED50,0.16 mg/kg
"Fc1ccc(Cn2c(NC3CCN(CCc4cnccn4)CC3)nc3ccccc32)cc1 [Compound 101, 1-(4-fluorophenylmethyl)-N-[1-[2-(2-pyrazinyl)ethyl]-4-piperidinyl]-1H-benzimidazol-2-amine]",ED50,0.31 mg/kg
